Measurements published in US20250268980A1, “AN ANTICANCER THERAPY TARGETING RAS AND OTHER ONCOGENIC SIGNALS BY INHIBITION OF DYNAMIC BLEBBING AND/OR SEPTINS” (THE BOARD OF REGENTS OF THE UNIVERSITY OF TEXAS SYSTEM, priority 2022, published 2025).

Test system: NRAS
Assay: NRAS-GFP enrichment at the cortex of MV3 cells
Assay type: cell-based, human
Conditions: voxels within 0.96 μm of surface
Protocol: 3D Cell Image Analysis. Cell morphology and septin localization were analyzed principally via u-shape3D similar to the protocol described in Driscoll et al. Nature Methods. 16, 1037-1044 (2019), the disclosure of which is incorporated herein in its entirety. Briefly, 3D images were first deconvolved using either a Richardson-Lucy or Wiener algorithm with an experimentally measured point spread function. Cells were next segmented from the image background using u-shape3D's ‘twoLevel’ mode, which combines a straightforward Otsu threshold of the image to detect the outer cell surface with a blurred version of the image to segment the inside of the cell. The volume segmented from the blurred image was morphologically eroded to ensure the fidelity of the overall segmentation. Cell surfaces were then represented as triangle meshes, and the mean surface curvature at every triangle was calculated according to methods described in Driscoll et al. Nature Methods. 16, 1037-1044 (2019) and Elliott et al., Nat. […] Septin and NRAS localization was measured from fluorescence images by extending a sphere of either 1 μm (for septins) or 2 μm (for NRAS) about each mesh triangle and mapping to the triangle the average intensity both within that sphere and the cell. Image intensity was not depth normalized prior to analysis, but was instead measured from the raw, undeconvolved image. […]

## O=C(Nc1ccccc1)Nc1ccnc(Cl)c1 [FCF, forchlorfenuron]
  enrichment of NRAS near the cell surface: significantly reduced enrichment of NRAS near the cell surface
